Test results published in patent US20250090640A1, “METHOD OF IMPROVING THE VIABILITY OF A DENTAL IMPLANT” (priority 2023, published 2025).

Legend:
[1] = test system: patients with severe, chronic periodontal disease; conditions: 6-week course of daily injections (20 mcg) from 3 days prior to surgery, with oral calcium and vitamin D; cited from earlier work
[2] = test system: OVX rats; parameters: species or system Sprague-Dawley rats; conditions: rat, in vivo
Excerpt: In this study, Sprague-Dawley rats were divided into three groups (Table 1) to study the impact of abaloparatide treatment on implant viability in rats in a model that mimics osteoporosis by ovariectomy (OVX).
At four months, rats in the OVX groups were ovariectomized, and bone depletion was allowed to occur for two months. At this point, daily injections of abaloparatide (Abalo) or vehicle (VEH) began 42 days prior to implant surgery and were continued out to 21 days past implant surgery.
As shown in FIGS. 2A-2C, 3A-3F, and 4A-4C, altered bone metabolism in the OVX rats and residual ridge defects complicated implant placement. […] However, abaloparatide did increase bone mass density in the femoral shaft and intact maxillac on the non-extraction side of the jaw (FIGS. 4A and 4B, respectively). With continued reference to FIGS. 4A and 4B, there was a 150% increase in mean BMD in OVX rats treated with ABL versus VEH.

SMILES	clinical outcomes relative to placebo during the year following periodontal surgery [1]	relationship of unexpected healing complications after tooth extraction to treatment [2]
CC[C@H](C)[C@H](NC(=O)[C@H](CCC(=O)O)NC(=O)[C@H](CO)NC(=O)[C@@H](NC(=O)[C@@H](N)CO)C(C)C)C(=O)N[C@@H](CCC(N)=O)C(=O)N[C@@H](CC(C)C)C(=O)N[C@@H](CCSC)C(=O)N[C@@H](Cc1cnc[nH]1)C(=O)N[C@@H](CC(N)=O)C(=O)N[C@@H](CC(C)C)C(=O)NCC(=O)N[C@@H](CCCCN)C(=O)N[C@@H](Cc1cnc[nH]1)C(=O)N[C@@H](CC(C)C)C(=O)N[C@@H](CC(N)=O)C(=O)N[C@@H](CO)C(=O)N[C@@H](CCSC)C(=O)N[C@@H](CCC(=O)O)C(=O)N[C@@H](CCCN=C(N)N)C(=O)N[C@H](C(=O)N[C@@H](CCC(=O)O)C(=O)N[C@@H](Cc1c[nH]c2ccccc12)C(=O)N[C@@H](CC(C)C)C(=O)N[C@@H](CCCN=C(N)N)C(=O)N[C@@H](CCCCN)C(=O)N[C@@H](CCCCN)C(=O)N[C@@H](CC(C)C)C(=O)N[C@@H](CCC(N)=O)C(=O)N[C@@H](CC(=O)O)C(=O)N[C@H](C(=O)N[C@@H](Cc1cnc[nH]1)C(=O)N[C@@H](CC(N)=O)C(=O)N[C@@H](Cc1ccccc1)C(=O)O)C(C)C)C(C)C [Teriparatide]	improved clinical outcomes	–
CC[C@H](C)[C@H](NC(=O)[C@H](CO)NC(=O)[C@H](CCCCN)NC(=O)CNC(=O)[C@H](CCCCN)NC(=O)[C@H](CC(=O)O)NC(=O)[C@H](Cc1cnc[nH]1)NC(=O)[C@H](CC(C)C)NC(=O)[C@H](CC(C)C)NC(=O)[C@H](CCC(N)=O)NC(=O)[C@H](Cc1cnc[nH]1)NC(=O)[C@H](CCC(=O)O)NC(=O)[C@H](CO)NC(=O)[C@@H](NC(=O)[C@H](C)N)C(C)C)C(=O)N[C@@H](CCC(N)=O)C(=O)N[C@@H](CC(=O)O)C(=O)N[C@@H](CC(C)C)C(=O)N[C@@H](CCCNC(=N)N)C(=O)N[C@@H](CCCNC(=N)N)C(=O)N[C@@H](CCCNC(=N)N)C(=O)N[C@@H](CCC(=O)O)C(=O)N[C@@H](CC(C)C)C(=O)N[C@@H](CC(C)C)C(=O)N[C@@H](CCC(=O)O)C(=O)N[C@@H](CCCCN)C(=O)N[C@@H](CC(C)C)C(=O)N[C@@H](CC(C)C)C(=O)NC(C)(C)C(=O)N[C@@H](CCCCN)C(=O)N[C@@H](CC(C)C)C(=O)N[C@@H](Cc1cnc[nH]1)C(=O)N[C@H](C(=O)N[C@@H](C)C(N)=O)[C@@H](C)O [abaloparatide, [Glu^22,25, Leu^23,28,31, Aib^29, Lys^26,30]hPTHrP(1-34)NH2]	–	no relationship
